Data reported in patent publication US9289430B2, “Compounds and methods for inhibiting phosphate transport” (Ardelyx, Inc., priority 2010, dated 2016).

Key:
rat NaP2b (SLC34A2) = target: T1, rat NaP2b (SLC34A2) (Rattus norvegicus, UniProt Q9JJ09); assay: NaP2b-mediated Pi transport: 33P phosphate uptake into transfected HEK293 cells; type: cell-based; conditions: 100 uM KH2PO4, PiT-silencing agent, read-out: pIC50 range for rat Nap2b (converted)
T1 construct: host or cells: HEK293
T1 sequence (Q9JJ09 1-695): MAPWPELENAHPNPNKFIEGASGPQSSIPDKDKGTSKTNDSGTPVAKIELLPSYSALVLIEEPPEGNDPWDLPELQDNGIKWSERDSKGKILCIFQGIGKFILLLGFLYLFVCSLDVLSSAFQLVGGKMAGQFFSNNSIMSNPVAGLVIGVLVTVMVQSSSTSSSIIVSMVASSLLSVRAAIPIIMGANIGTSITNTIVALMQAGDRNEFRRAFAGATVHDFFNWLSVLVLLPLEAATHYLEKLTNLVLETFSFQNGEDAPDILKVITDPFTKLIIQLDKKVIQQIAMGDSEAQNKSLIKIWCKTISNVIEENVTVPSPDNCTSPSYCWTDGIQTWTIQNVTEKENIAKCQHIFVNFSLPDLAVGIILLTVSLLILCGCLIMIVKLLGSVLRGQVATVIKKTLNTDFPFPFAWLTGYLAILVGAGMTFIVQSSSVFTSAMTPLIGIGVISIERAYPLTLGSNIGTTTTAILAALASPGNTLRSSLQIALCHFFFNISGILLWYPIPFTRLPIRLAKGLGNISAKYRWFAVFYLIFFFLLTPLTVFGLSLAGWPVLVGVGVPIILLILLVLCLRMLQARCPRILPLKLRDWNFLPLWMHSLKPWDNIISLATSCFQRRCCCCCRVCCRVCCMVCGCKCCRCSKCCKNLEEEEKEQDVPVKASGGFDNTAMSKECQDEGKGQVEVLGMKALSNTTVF
Procedure: Materials. HEK293 cells were obtained from the American Type Culture collection and propagated per their instructions. Expression clones for rat and human NaP2b (SLC34A2) were obtained from Open Biosystems (Catalog numbers MRN1768-9510282, and MHS1010-99823026, respectively). The sequence of the human protein was mutated to insert a threonine after residue 37, and to introduce a N39D mutation.
Inhibition of Pi Transport. The rate of phosphate (Pi) uptake into HEK293 cells was measured using a modification of the method described by Mohrmann et al. (Mohrmann, I., Mohrmann, M., Biber, J., and Murer, H. (1986) Am. J. Phys. 250(3 Pt 1):G323-30.) Transfected HEK293 cells were treated with a pharmacological agent to minimize endogenous PiT-mediated phosphate transport activity, such that the only remaining sodium-dependent phosphate transport activity is that which was bestowed by introduction of the NaP2b genes.
Cells were seeded into 96-well plates at 25,000 cells/well and cultured overnight. Lipofectamine 2000 (Invitrogen) was used to introduce the NaP2b cDNA, and the cells were allowed to approach confluence during a second overnight incubation. […] Cells were then overlayed with either choline uptake buffer or sodium uptake buffer (14 mM Tris, 137 mM sodium chloride, 5.4 mM KCl, 2.8 mM CaCl2, 1.2 mM MgSO4, 100 uM KH2PO4, PiT-silencing agent, 1 mg/mL Bovine Serum Albumin, pH 7.4) containing 6-9 uCi/mL ^33P orthophosphoric acid (Perkin Elmer) and test compound. Each compound was tested at twelve concentrations ranging from 0.1 nM to 30 uM. Assays were run in duplicate.
After incubation for 3-30 minutes at room temperature, assay mixtures were removed, and the cells were washed twice with ice cold stop solution (137 mM sodium chloride, 14 mM Tris, pH 7.4). Cells were lysed by addition of 20 μL 0.1% Tween 80 followed by 100 μL scintillation fluid, and counted using a TopCount (Perkin Elmer).
pIC50 (the negative log of the IC50) values of the test compounds were calculated using GraphPad Prism.

[1] = human absorption data, from Ertl et al., J. Med. Chem. 2000; cited from earlier work

SMILES | IC50 (rat NaP2b (SLC34A2)) [µM] | % FA [1] [%]
CCN(CC)CCN(C)Cc1ccc(C(=O)Nc2ccc(N3CCCCC3)cc2C(=O)Nc2ccn(-c3cccc(C(F)(F)F)c3)n2)cc1 [Example 9, 2-(4-(((2-(diethylamino)ethyl)(methyl)amino)methyl)benzamido)-5-(piperidin-1-yl)-N-(1-(3-(trifluoromethyl)phenyl)-1H-pyrazol-3-yl)benzamide] | 10 to 31.6 | –
O=C(O)c1cc(/N=N/c2ccc(S(=O)(=O)Nc3ccccn3)cc2)ccc1O [sulfasalazine] | – | 12
COCCNC(=O)CCN(C)Cc1cccc(C(=O)Nc2ccc(N3CCCCC3)cc2C(=O)Nc2ccn(-c3cccc(C(F)(F)F)c3)n2)c1 [Example 16, 2-(3-(((3-((2-methoxyethyl)amino)-3-oxopropyl)(methyl)amino)methyl)-benzamido)-5-(piperidin-1-yl)-N-(1-(3-(trifluoromethyl)phenyl)-1H-pyrazol-3-yl)-benzamide] | 1 to 7.94 | –
CCN1CCCC1CNC(=O)c1cc(S(N)(=O)=O)ccc1OC (centres unmarked) [sulpiride] | – | 36
O=C(O)P(=O)(O)O [foscarnet] | – | 17
CN(CCN1CCOCC1)C(=O)c1cccc(C(=O)Nc2ccc(N3CCCCC3)cc2C(=O)Nc2ncn(-c3cccc(C(F)(F)F)c3)n2)c1 [Example 2, N1-Methyl-N1-(2-morpholinoethyl)-N3-(4-(piperidin-1-yl)-2-((1-(3-(trifluoromethyl)phenyl)-1H-1,2,4-triazol-3-yl)carbamoyl)phenyl)isophthalamide] | 1 to 7.94 | –
CC(C)NCC(O)COc1cccc2[nH]ccc12 (centres unmarked) [pindolol] | – | 92
O=C(O)c1cc(/N=N/c2ccc(O)c(C(=O)O)c2)ccc1O [olsalazine] | – | 2.3
O=C(O)CCSCc1cccc(C(=O)Nc2ccc(Cl)cc2C(=O)Nc2ccn(-c3cccc(C(F)(F)F)c3)n2)c1 [Example 6, 3-((3-((4-Chloro-2-((1-(3-(trifluoromethyl)phenyl)-1H-pyrazol-3-yl)carbamoyl)phenyl)carbamoyl)benzyl)thio)propanoic acid] | 1 to 7.94 | –
CC(=O)Nc1ccc(OCC(O)CNC(C)C)cc1 (centres unmarked) [practolol] | – | 95
C=CCc1ccccc1OCC(O)CNC(C)C (centres unmarked) [alprenolol] | – | 96
NC[C@H]1CC[C@H](C(=O)O)CC1 [tranexamic acid] | – | 55
OC[C@H]1O[C@@H](O[C@@H]2[C@@H](CO)OC(O)(CO)[C@H]2O)[C@H](O)[C@@H](O)[C@H]1O (mixture of isomers) [lactulose] | – | 0.6
O=C(NCCOCCO)c1cccc(C(=O)Nc2ccc(N3CCCCC3)cc2C(=O)Nc2ccn(-c3cccc(C(F)(F)F)c3)n2)c1 [Example 13, N1-(2-(2-Hydroxyethoxyl)ethyl)-N3-(4-(piperidin-1-yl)-2-((1-(3-(trifluoromethyl)phenyl)-1H-pyrazol-3-yl)carbamoyl)phenyl)isophthalamide] | 1 to 7.94 | –
Cc1ccc(-n2ccc(NC(=O)c3cc(Cl)ccc3NC(=O)c3cccc(CSCCC(=O)O)c3)n2)cc1C [Example 4, 3-((3-((4-Chloro-2-((1-(3,4-dimethylphenyl)-1H-pyrazol-3-yl)carbamoyl)phenyl)carbamoyl)benzyl)thio)propanoic acid] | 1 to 7.94 | –
O=C(NCCOCCO)c1cccc(C(=O)Nc2ccc(N3CCCCC3)cc2C(=O)Nc2cn(-c3cccc(C(F)(F)F)c3)cn2)c1 [Example 10, N1-(2-(2-Hydroxyethoxyl)ethyl)-N3-(4-(piperidin-1-yl)-2-((1-(3-(trifluoromethyl)phenyl)-1H-imidazol-4-yl)carbamoyl)phenyl)isophthalamide] | 1 to 7.94 | –
CN(CCN1CCOCC1)C(=O)c1cccc(C(=O)Nc2ccc(N3CCCCC3)cc2C(=O)Nc2nc(-c3cccc(C(F)(F)F)c3)cs2)c1 [Example 3, N1-Methyl-N1-(2-morpholinoethyl)-N3-(4-(piperidin-1-yl)-2-((4-(3-(trifluoromethyl)phenyl)thiazol-2-yl)carbamoyl)phenyl)isophthalamide] | < 1 | –
Cc1ccccc1N1C(=O)c2cc(S(N)(=O)=O)c(Cl)cc2NC1C (centres unmarked) [metolazone] | – | 64
CCN(CC)CCN(C)Cc1cccc(C(=O)Nc2ccc(N3CCCCC3)cc2C(=O)Nc2ccn(-c3cccc(C(F)(F)F)c3)n2)c1 [Example 12, 2-(3-(((2-(Diethylamino)ethyl)(methyl)amino)methyl)benzamido)-5-(piperidin-1-yl)-N-(1-(3-(trifluoromethyl)phenyl)-1H-pyrazol-3-yl)benzamide] | 10 to 31.6 | –
CN(CCOCCOCCOCCC(=O)O)Cc1cccc(C(=O)Nc2ccc(N3CCCCC3)cc2C(=O)Nc2ccn(-c3cccc(C(F)(F)F)c3)n2)n1 [Example 8, 2-methyl-1-(6-((4-(piperidin-1-yl)-2-((1-(3-(trifluoromethyl)phenyl)-1H-pyrazol-3-yl)carbamoyl)phenyl)carbamoyl)pyridin-2-yl)-5,8,11-trioxa-2-azatetradecan-14-oic acid] | 1 to 7.94 | –
OC[C@H]1O[C@H](OC[C@H]2O[C@H](O[C@]3(CO)O[C@H](CO)[C@@H](O)[C@@H]3O)[C@H](O)[C@@H](O)[C@@H]2O)[C@H](O)[C@@H](O)[C@H]1O [raffinose] | – | 0.3
OC[C@@H](O)[C@@H](O)[C@H](O)[C@H](O)CO [mannitol] | – | 26
O=C(O)Cc1cccc(SCc2cccc(C(=O)Nc3ccc(Cl)cc3C(=O)Nc3ccn(-c4cccc(C(F)(F)F)c4)n3)c2)c1 [Example 24, 2-(3-((3-((4-chloro-2-((1-(3-(trifluoromethyl)phenyl)-1H-pyrazol-3-yl)-carbamoyl)phenyl)carbamoyl)benzyl)thio)phenyl)acetic acid] | < 1 | –
C=CCOc1ccccc1OCC(O)CNC(C)C (centres unmarked) [oxprenolol] | – | 97
O=C(O)c1ccc(SCc2cccc(C(=O)Nc3ccc(N4CCCCC4)cc3C(=O)Nc3ccn(-c4cccc(C(F)(F)F)c4)n3)c2)cc1 [Example 21, 4-((3-((4-(piperidin-1-yl)-2-((1-(3-(trifluoromethyl)phenyl)-1H-pyrazol-3-yl)carbamoyl)phenyl)carbamoyl)benzyl)thio)benzoic acid] | 1 to 7.94 | –
Cc1ccc(-n2ccc(NC(=O)c3cc(N4CCCCC4)ccc3NC(=O)c3cccc(CSCCC(=O)O)c3)n2)cc1C [Example 5, 3-((3-((2-((1-(3,4-Dimethylphenyl)-1H-pyrazol-3-yl)carbamoyl)-4-(piperidin-1-yl)phenyl)carbamoyl)benzyl)thio)propanoic acid] | 1 to 7.94 | –
